Structures can show the parent of a compound that is named as a salt. Where two headings read alike, the source gives them in different places.

On series [1], the source says:
After solubilizing the sugar and the compound in ethanol or aqueous ethanol, the ethanol is evaporated for example under a high rotary vacuum. The powder resulting from the evaporation step is then resolubilized (dissolved) in water. Another solvent can be methanol at 80% methanol, 95% (ACS grade) or greater (to 100% methanol) as well as combinations of methanol and ethanol or methanol and water. After solubilizing the sugar and the compound in ethanol or aqueous ethanol, the ethanol is evaporated for example under a high rotary vacuum. The powder resulting from the evaporation step is then resolubilized (dissolved) in water.
Generally, ingredients are deposited into a sealed container with ethanol and vortex-mixed to form a solution. The solution is subjected to centrifugation. The ethanol is evaporated off and the dried mixture was dissolved in water. This mixture is centrifuged again and the supernatant is filtered through a membrane. […] In one embodiment, the admixing process involves dissolving the PSD and sugar in the ethanol while stirring and adjusting the pH as necessary to obtain complete dissolution and a clear reaction mixture. The reaction mixture can then be dried to remove the ethanol. No further water washing or filtering is needed.
In this example, an oven-dried single-neck RB flask equipped with a magnetic stir bar was used. […] The reaction mixture was vigorously stirred at room temperature for 30 min at 20° C. […] The white solid was dried using vacuum drying performed at room temperature and a high vacuum pump for about one hour to remove the ethanol (EtOH) completely using an Edvards Model #RV8 […], a Heidolph type Basis Hei-VAP Value, No. 560-00000-0101. The high vacuum pump was connected to a cooling trap and the trap was connected to the RB flask. Vacuum strength was about 1 mm Hg.
The white foamy solid was dried over a high vacuum at room temperature for an additional hour to remove the water completely, by ascertaining changes in weight loss. Drying continued until further weight loss was not observed.
Step 1: In an oven-dried single neck RB flask equipped with magnetic stir and septa (flask cap), 5 mg sildenafil (0.01054 mmol) and 16.95 mg stevioside (1:2 molar ratio) were weighed into the RB flask and dissolved in 85% ethanol (˜2.0 mL, denatured 85% ethanol) at ambient temperature. The reaction mixture was vigorously stirred at room temperature for 30 min. […] The white solid was dried over a high vacuum for an hour to remove the ethanol completely (no further reduction in weight was observed).
Step 2: The obtained white solid was then dissolved in 2.0 mL water at room temperature in an RB flask with a magnetic stir bar. The reaction mixture was stirred at ambient temperature for 30 min. […] The white foamy solid was dried over a high vacuum at room temperature for an additional hour to remove the water completely. The weight of the flask was checked while drying until no further weight loss was observed.

A short description of series [2]: Non-caloric sugar solubility in water and 95% ethanol. How it is done: In this experiment, the following sugars were compared for solubility: rubusoside, dulcoside A, rebaudioside B, dulcoside B, and rebaudioside D. Approximately 5.0 mg of each sugar was attempted to be dissolved in 0.6 mL water and vortexed for 2 minutes at room temperature.
In another experiment, 50 mg stevia was dissolved in either 2.0 mL water or 2.0 mL 95% ethanol.

For series [3] the following is noted: cited from earlier work.
The conditions of series [4]: cited from earlier work. The source holds these as a separate data set.
Setting [5] is: approximately 5.0 mg in 0.6 mL water, vortexed 2 minutes, room temperature.

`C[C@]12C=CC(=O)C=C1CC[C@@H]1[C@@H]2C(=O)C[C@@]2(C)[C@H]1CC[C@]2(O)C(=O)CO` [prednisone]: the “appearance of the dried powder re-dissolved in 2 mL deionized water” value in series [1] (Example 23, rubusoside 50 mg : prednisone 5 mg) is on record as “white turbid mixture”.

With `C=C1C[C@@]23CC[C@H]4[C@@](C)(CCC[C@@]4(C)C(=O)O[C@@H]4O[C@H](CO)[C@@H](O)[C@H](O)[C@H]4O)[C@@H]2CC[C@]1(O[C@@H]1O[C@H](CO)[C@@H](O)[C@H](O)[C@H]1O)C3` [Rubusoside], in series [2] (setting [5]), the “solubility of the sugar in water (observation)” value (“solubility of the sugar in water” below) was “No undissolved”. Also, in series [3], the “Sugar Solubility in 95% EtOH” value was 10000 µg/mL and the “Sugar Solubility in Water” value was “Soluble”.

Take `O=C(CO)[C@@H](O)[C@H](O)[C@H](O)CO` [D-fructose]: in series [2] (Example 22, 200 mg, 20° C.), the “solubility of the sugar in 95% ethanol (observation)” value was “not soluble” and the “solubility of the sugar in water” value is “soluble”. Further, in series [3], the “Sugar Solubility in 95% EtOH” value was “Insoluble”.

As to `C=C1C[C@@]23CC[C@H]4[C@@](C)(CCC[C@@]4(C)C(=O)O[C@@H]4O[C@H](CO)[C@@H](O)[C@H](O)[C@H]4O)[C@@H]2CC[C@]1(O[C@@H]1O[C@H](CO)[C@@H](O)[C@H](O[C@@H]2O[C@H](CO)[C@@H](O)[C@H](O)[C@H]2O)[C@H]1O[C@@H]1O[C@@H](C)[C@H](O)[C@@H](O)[C@H]1O)C3` [dulcoside B], the “solubility of the sugar in water” value in series [2] (setting [5]) is reported as “partially soluble”. Moreover, in series [3], the “Sugar Solubility in 95% EtOH” value is listed as “Slightly soluble” and the “Sugar Solubility in Water” value is on record as “Partly soluble”.

For the compound `Nc1nc2c(ncn2COCCO)c(=O)[nH]1` [Acyclovir], the water solubility result in series [4] (drug alone) is recorded as “less than 1 mg/mL”.

Consider `C[C@]12CC[C@H]3[C@@H](CCC4=CC(=O)CC[C@@]43C)[C@@H]1CC[C@@H]2OC(=O)CCC1CCCC1` [testosterone cypionate], for which the “appearance of the dried mixture dissolved in water” value in series [1] (rubusoside 23.4 mg : testosterone cypionate 5 mg (3:1 sugar-to-drug)) is “white turbid solution”. Further, in series [1] (testosterone cypionate:stevioside 1:10 molar), the “appearance of the dried powder in 2 mL water” value is given as “white-turbid solution”.

Regarding `CC(=O)O[C@H]1C(=O)[C@@]2(C)[C@H]([C@H](OC(=O)c3ccccc3)[C@]3(O)C[C@H](OC(=O)[C@H](O)[C@@H](NC(=O)c4ccccc4)c4ccccc4)C(C)=C1C3(C)C)[C@]1(OC(C)=O)CO[C@@H]1C[C@@H]2O` [Paclitaxel], in series [1], the “Solubility of Paclitaxel In Ethanol, With Rubusoside” value is recorded as “Soluble”; the “Solubility of Paclitaxel In Water after first being dissolved in EtOH, With Rubusoside” value is “Insoluble”; the “Solubility of Paclitaxel In Water, With Rubusoside” value is on record as “Insoluble”.

Turning to `OC[C@H]1O[C@@](CO)(O[C@H]2O[C@H](CO)[C@@H](O)[C@H](O)[C@H]2O)[C@@H](O)[C@@H]1O` [sucrose], in series [3], the “Sugar Solubility in 95% EtOH” value is “Insoluble” and the “Sugar Solubility in Water” value is recorded as 204 g/100 g water.

`CN1CC(=O)N2[C@H](c3ccc4c(c3)OCO4)c3[nH]c4ccccc4c3C[C@@H]2C1=O` [Tadalafil, (2R,8R)-2-(1,3-benzodioxol-5-yl)-6-methyl-3,6,17-triazatetracyclo[8.7.0.0^3, 8.0^11, 16]heptadeca-1(10),11,13,15-tetraene-4,7-dione]: the “improvement in water solubility” value in series [1] is on record as approximately 2.3%. Besides, the “appearance of the dried gel in water” value in series [1] (Example 31, Tadalafil:Tween 80 1:5 molar, after 3 minutes) is “white and turbid solution”. In series [1] (Example 31, tadalafil:P188:stevioside 1:10:5 molar), the “appearance of the dried mixture in 3 mL water” value was “white turbid solution”. Moreover, the “appearance of the dried mixture in water” value is “turbid solution” in series [1] (Example 31, tadalafil:P-188 1:10); “white turbid solution” in series [1] (Example 31, tadalafil:stevioside 1:3 molar, citric acid in step 1); “white and turbid” in series [1] (Example 31, tadalafil:stevioside 1:10 molar, carbonate buffer pH 9.4 in step 1). In addition, the “appearance of the dried mixture in 2.0 mL water” value in series [1] (Example 31, tadalafil:Tween 20 1:5 molar) is given as “white turbid solution with solids still visible”. Further, the “appearance of the dried mixture in 3.0 mL water” value in series [1] (Example 31, tadalafil:glycerol:stevioside 1:20:5) is reported as “white turbid solution”; in series [1] (Example 31, tadalafil:glycerol:stevioside 1:30:5, citric acid, pH about 3.0), “white turbid”. Further, the “low-intensity drug peaks by NMR” value in series [1] (Example 31, tadalafil:glycerol:stevioside 1:20:5, 10 mg citric acid monohydrate, pH about 3.0) is 2-3%. The “appearance of the dried powder in 2 mL water” value in series [1] (Example 31, tadalafil:stevioside 1:10 molar, buffer pH 9.4 added in water) is on record as “white turbid solution”. Besides, in series [1] (pH 2.5), the “solubility of the complex in water” value is listed as “not 100% soluble”. In addition, in series [4] (at 25° C.), the solubility in water is 220 mg/L at 25 °C in water. The “solubility in chloroform” value in series [4] was “soluble”.

`COc1ccc(CN=c2[nH]c(N3CCC[C@H]3CO)ncc2C(=O)NCc2ncccn2)cc1Cl` [Avanafil, 4-[(3-chloro-4-methoxyphenyl)methylamino]-2-[(2S)-2-(hydroxymethyl)pyrrolidin-1-yl]-N-(pyrimidin-2-ylmethyl)pyrimidine-5-carboxamide]: the “solubility in water by NMR” value in series [1] is on record as 100%. The “solubility in DMSO” value in series [4] (at 25° C.) was “Soluble in DMSO (97 mg/ml”; in series [4] it was “soluble”.

As for `CCCOc1ccc(S(=O)(=O)NCCC2CCCN2C)cc1-c1nc2c(CCC)nn(C)c2c(=O)[nH]1` (stereo not shown) [Udenafil], the “solubility in DMSO” value in series [4] is reported as “soluble”. Further, in series [4] (drug alone), the water solubility entry is “about 0.0798 mg/mL”.

Consider `C=C1C[C@@]23CC[C@H]4[C@@](C)(CCC[C@@]4(C)C(=O)O[C@@H]4O[C@H](CO)[C@@H](O)[C@H](O)[C@H]4O)[C@@H]2CC[C@]1(O[C@@H]1O[C@H](CO)[C@@H](O)[C@H](O)[C@H]1O[C@@H]1O[C@H](CO)[C@@H](O)[C@H](O)[C@H]1O)C3` [Stevioside], for which, in series [3], the “Sugar Solubility in 95% EtOH” value is 30000 µg/mL and the “Sugar Solubility in Water” value is reported as 4 g/L.

As for `CC1(C)S[C@@H]2[C@H](NC(=O)COc3ccccc3)C(=O)N2[C@H]1C(=O)O` [Penicillin V HCl, phenoxymethylpenicillinic acid], in series [1], the “Solubility In 95% Ethanol, With Rubusoside (table of Example 25)” value is given as “Soluble”; the “Solubility In Water after first being dissolved in EtOH, With Rubusoside (table of Example 25)” value is listed as “Soluble”; the “Solubility In Water, With Rubusoside (table of Example 25)” value is on record as “Soluble”; the “Solubility of Penicillin V HCl In Ethanol, With Rubusoside” value is “Soluble”. For the same compound, in series [1], the “Solubility of Penicillin V HCl In Water after first being dissolved in EtOH, With Rubusoside” value was “Soluble” and the “Solubility of Penicillin V HCl In Water, With Rubusoside” value was “Soluble”. In series [4] (Example 24), the “Solubility of Penicillin V HCl In Ethanol, Without Rubusoside” value is listed as “Soluble” and the “Solubility of Penicillin V HCl In Water, Without Rubusoside” value is recorded as 0.636 mg/mL or at. In series [4] (Example 24, pH 1.8 acidified with HCl), the “Solubility of Penicillin V HCl In Water, Without Rubusoside” value is given as “HCl at 24 mg/100 mL”. Also, in series [4] (Example 25 (acyclovir and rubusoside), at 55° C.), the “Solubility In Water, Without Rubusoside (table of Example 25)” value is 1 mg/mL at 55 °C. The “Solubility In Water, Without Rubusoside (table of Example 25)” value in series [4] (Example 25 (acyclovir and rubusoside), at pH 1.8) is reported as 24 mg/100 mL at. The “Solubility In 95% Ethanol, Without Rubusoside (table of Example 25)” value in series [4] (Example 25 (acyclovir and rubusoside)) is listed as “Soluble”.

`CCCCC[C@H](O)/C=C/[C@H]1[C@H](O)CC(=O)[C@@H]1CCCCCCC(=O)O` [Alprostadil, (1R,2R,3R)-3-Hydroxy-2-[(E)-(3S)-3-hydroxy-1-octenyl]-5-oxocyclopentane heptanoic acid]: in series [1], the “solubility of the complex in water by NMR” value stood at 100%. In addition, in series [4], the “solubility in DMSO” value was “soluble”. For the same compound, in series [4] (distilled water), the “solubility in distilled water” value is recorded as 8000 μg per 100 mL. In addition, in series [4] (drug alone), the “solubility in water” value is recorded as “insoluble” and the water solubility result is on record as “less than 1 mg/mL”. Also, the “solubility in ethanol, ether and ethyl acetate” value in series [4] (printed over two lines: nearly / insoluble) is “insoluble in ethanol, ether”.

Turning to `CCCc1nc(C)c2c(=O)[nH]c(-c3cc(S(=O)(=O)N4CCN(CC)CC4)ccc3OCC)nn12` [Vardenafil HCl], the “solubility of the complex in water by NMR” value in series [1] is on record as 100%. In addition, the “solubility in DMSO” value in series [4] (at 28° C., solids remain present at 22° C.) is reported as “soluble”. Also, the “solubility in chloroform” value in series [4] was “insoluble”.

Turning to `CCCc1nc(C)c2c(=O)[nH]c(-c3cc(S(=O)(=O)N4CCN(CC)CC4)ccc3OCC)nn12` [Vardenafil, 2-[2-ethoxy-5-(4-ethylpiperazin-1-yl)sulfonylphenyl]-5-methyl-7-propyl-3H-imidazo[5,1-f][1,2,4]triazin-4-one], the solubility in water in series [4] (at 25° C., Estimated) is 3.5 mg/L at 25° C./.

Values taken from US12115222B2, “Compositions and methods for improving the solubility of erectile dysfunction therapeutics” (Villya LLC, priority 2023, dated 2024).
